From patent US20260216368A1, “BIS-ESTER AND AMIDE CATIONIC LIPIDS” (SANOFI PASTEUR INC., priority 2022, published 2026)

What was measured:
[1] = RiboGreen assay, % encapsulation of mRNA in lipid nanoparticles; type: physicochemical; details: hEPO mRNA LNP, Cationic Lipid:DMG-PEG2000:Cholesterol:DOPE=40:1.5:28.5:30, N/P ratio 4, Process A
From the text: In embodiments, the lipid nanoparticle encapsulates a nucleic acid, optionally an mRNA encoding a peptide or protein. In embodiments, the peptide is an antigen. In embodiments, the lipid nanoparticle encapsulates an mRNA encoding a peptide or protein. As used herein, the phrase “encapsulation percentage” refers to the fraction of therapeutic agent (e.g. mRNA) that is effectively encapsulated within a liposomal-based vehicle (e.g. a lipid nanoparticle) relative to the initial fraction of therapeutic agent present in the lipid phase. In embodiments, the lipid nanoparticles have an encapsulation percentage for mRNA of at least 50%. In embodiments, the lipid nanoparticles have an encapsulation percentage for mRNA of at least 55%. In embodiments, the lipid nanoparticles have an encapsulation percentage for mRNA of at least 60%. In embodiments, the lipid nanoparticles have an encapsulation percentage for mRNA of at least 65%. In embodiments, the lipid nanoparticles have an encapsulation percentage for mRNA of at least 70%. In embodiments, the lipid nanoparticles have an encapsulation percentage for mRNA of at least 75%. In embodiments, the lipid nanoparticles have an encapsulation percentage for mRNA of at least 80%. In embodiments, the lipid nanoparticles have an encapsulation percentage for mRNA of at least 85%. In embodiments, the lipid nanoparticles have an encapsulation percentage for mRNA of at least 90%. In embodiments, the lipid nanoparticles have an encapsulation percentage for mRNA of at least 95%. In embodiments, the encapsulation percentage is calculated by performing the Ribogreen assay (Invitrogen) with and without the presence of 0.1% Triton-X 100.
The RiboGreen Assay is a fluorescence-based method for the determination of mRNA concentration (Total and Free) and % encapsulation using Quant-iT™ RiboGreen® RNA reagent in mRNA containing lipid nanoparticles.
• To each of the standards (Blank, mRNA-1, mRNA-2. mRNA-3, mRNA-4, mRNA-5) and Samples (free mRNA and total mRNA), add 1.0 mL of 200-fold Ribogreen Reagent Solution and gently mix by inversion. This is a 2× Dilution. • Add 200 μL of each standard and sample in triplicate using the reverse pipetting technique in a 96-well Costar Black with Clear Background Plate. Ensure no bubbles are present in the plate before the fluorescence reading. • Read the fluorescence signal using the below instrument parameters: • Read Type: Fluorescence, Bottom Read • Excitation: 485 nm; Cut-off: 515 nm; Emission: 530 nm • Plate Type: 96-well Costar Black with Clear Background
The average fluorescence from each calibration standard is plotted against the concentration to generate a linear calibration curve using the MS Excel software. The coefficient of determination (R^2) of calibration curve must be R^2>0.99.
[formula] • Where, • Y=average fluorescence value • m: slope • x: concentration (pg/mL) • c: y-intercept • Using the linear equation, calculate the concentration of free and total mRNA concentration in the test sample by replacing the y value in the equation with the average fluorescence value of each respective sample • Once the concentration is determined, the actual concentration in the sample can be back-calculated by multiplying the concentration in the test sample with the dilution factor (DF) as follows:
[formula] • Concentration of encapsulated mRNA can be determined by subtracting the concentration of free mRNA from the total mRNA. • % Encapsulation can then be calculated by taking the ratio of encapsulated mRNA over total mRNA and multiplying the result with 100.

[2] = tested on: Human erythropoietin (hEPO) levels in sera; assay: Delivery of hEPO mRNA by intramuscular administration of lipid nanoparticles; serum hEPO by ELISA; type: in vivo, Mouse; details: for hEPO 6 Hr (ng/mL) Mean / hEPO 24 Hr (ng/mL) Mean: serum, 0.1 μg/animal hEPO mRNA LNP, n=4; for hEPO 6 Hr (ng/mL) Mean: 6 hours post dose; for in vivo hEPO protein production (FIG. 51): intramuscular delivery of hEPO mRNA using lipid nanoparticles comprising the compound, result in words; for hEPO 24 Hr (ng/mL) Mean: 24 hours post dose
Protocol: WO2022/099003 A1 describes an in vivo assay for intramuscular administration (e.g. on page 46, paragraph [00206]). Further details of the intramuscular experiment performed in this application are provided below.
Treatment Regimen: On Day 1, animals from Groups 1-8 were dosed via intramuscular injection while under light isoflurane anesthesia according to the study design table above. Animals in Groups 2-8 were injected with EPO in the right leg only. Group 1 animals received saline control.
Interim Sample Collections: Interim whole blood (~50 μL) was collected by tail snip or saphenous vein at 6 hours post dose administration (±5%). Blood samples were collected into serum separator tubes, allowed to clot at room temperature for at least 10 minutes, centrifuged at ambient temperature at minimum 1000 g for 10 minutes and the serum was extracted. All serum samples were stored at nominally −70° C. until analysis hEPO by the Testing Facility. The results of the EPO analysis were included in the Data Submission.
Terminal Blood Collections: Whole blood was collected via cardiac puncture into serum separator tube, allowed to clot at room temperature for at least 10 minutes, centrifuged at ambient temperature at minimum 1000 g for 10 minutes and the serum was extracted. Serum samples were stored at nominally −70° C. until analyzed for hEPO by the Test Facility.
ELISA Assay: Human erythropoietin (hEPO) levels in sera samples were determined by ELISA kit (R&D systems, Cat #DEP-00) according to the manufactory instruction and the results were included in the Data Submission. The “shaker” protocol was used. The serum samples were diluted between 1:40 and 1:100.
The ability of the further exemplary lipid nanoparticles in Example 54 to deliver hEPO mRNA by intramuscular administration was tested in accordance with the experimental protocol set out in Example 52.

[3] = DLS size and polydispersity of hEPO mRNA lipid nanoparticles; type: physicochemical; details: hEPO mRNA LNP, Cationic Lipid:DMG-PEG2000:Cholesterol:DOPE=40:1.5:28.5:30, N/P ratio 4, Process A
Protocol: The lipid nanoparticles in the examples of the present invention were formulated using Process A of WO 2018/089801 (see, e.g., Example 1 and FIG. 1 of WO 2018/089801). Process A (“A”) relates to a conventional method of encapsulating mRNA by mixing mRNA with a mixture of lipids, without first pre-forming the lipids into lipid nanoparticles. In an exemplary process, an ethanol lipid solution and an aqueous buffered solution of mRNA were prepared separately. A solution of mixture of lipids (cationic lipid, helper lipids, zwitterionic lipids, PEG lipids etc.) was prepared by dissolving lipids in ethanol. The mRNA solution was prepared by dissolving the mRNA in citrate buffer. Then, these two solutions were mixed using a pump system. In some instances, the two solutions were mixed using a gear pump system. In certain embodiments, the two solutions were mixing using a ‘T’ junction (or “Y” junction). The mixture was then purified by diafiltration with a TFF process. The resultant formulation concentrated and stored at 2-8° C. until further use.
(§1) Lipid nanoparticle formulations of Table 1 were prepared by Process A. More specifically, an ethanolic solution of a mixture of lipids including DMG-PEG-2000, cationic lipid, cholesterol, and phosphatidylethanolamine (DOPE) in a ratio of 1.5:40:28.5:30 were combined with an aqueous buffered solution (1 mM Citrate and 150 mM NaCl) of target mRNA at an acidic pH (4.5) under controlled conditions to yield a dispersion of uniform lipid nanoparticles (LNPs). Upon ultrafiltration and diafiltration into the final buffer, the resulting nanoparticle dispersions were diluted to required concentration using the final buffer (10% Trehalose), sterile filtered and stored frozen at −80° C. until use.
All of the lipid nanoparticle formulations comprised hEPO mRNA and the different lipids in following mol % ratios: Cationic Lipid: DMG-PEG2000; Cholesterol:DOPE=40:1.5:28.5:30.
DLS measurements were performed using a Malvern Instruments Zetasizer with a backscattering detector angle of 173° and a 4-mW, 633-nm He—Ne laser (Worcestershire, UK). The samples were analyzed by diluting in 10% Trehalose and measuring the size and Poly dispersity Index (PDI) in an optical grade polystyrene cuvette.
The following lipid nanoparticles were formulated according to Example 51.
as §1, with “Table 3” for “Table 1”

[4] = single IM injection, female BALB/cJ mice

Row | Compound | Encapsulation Percentage (%) ([1]; Table 3, further LNPs) | hEPO 6 Hr (ng/mL) Mean ([2]; fourth occasion, IM, mice) | PDI ([3]; Table 3, further LNPs) | Size (nm) ([3]; Table 3, further LNPs) | Encapsulation Percentage (%) ([1]; Table 1) | in vivo hEPO protein production (FIG. 51) [2] | hEPO 6 Hr (ng/mL) Mean [2, 4] | hEPO 24 Hr (ng/mL) Mean [2, 4] | PDI ([3]; Table 1) | Size (nm) ([3]; Table 1) | hEPO 6 Hr (ng/mL) Mean ([2]; fifth occasion, IM, mice) | hEPO 6 Hr (ng/mL) Mean ([2]; third occasion, IM, mice)
1 | CCCCCCCCCCC(O)CN(CCCOC(=O)N[C@@H](Cc1c[nH]cn1)C(=O)OCCCN(CC(O)CCCCCCCCCC)CC(O)CCCCCCCCCC)CC(O)CCCCCCCCCC (stereo partly drawn) [Compound CIII, 3-(bis(2-hydroxydodecyl)amino)propyl ((3-(bis(2-hydroxydodecyl)amino)propoxy)carbonyl)-L-histidinate] | 91% | 15.4 ng/mL | 0.126 | 93 nm | – | – | – | – | – | – | – | –
2 | CCCCCCCCCCC(O)CN(CCCOC(=O)[C@H](CCc1ccccc1)NC(=O)CCCN(CC(O)CCCCCCCCCC)CC(O)CCCCCCCCCC)CC(O)CCCCCCCCCC (stereo partly drawn) [Compound XCVI, 3-(bis(2-hydroxydodecyl)amino)propyl (2S)-2-(4-(bis(2-hydroxydodecyl)amino)butanamido)-4-phenylbutanoate] | 85% | 37.3 ng/mL | 0.166 | 123 nm | – | – | – | – | – | – | – | –
3 | CCCCCC/C=C\COC(=O)CCCCCC(O)CN(CCCOC(=O)CN(C)CC(=O)OCCCN(CC(O)CCCCCC(=O)OC/C=C\CCCCCC)CC(O)CCCCCC(=O)OC/C=C\CCCCCC)CC(O)CCCCCC(=O)OC/C=C\CCCCCC (centres unmarked) [XV] | – | – | – | – | 33% | high levels of in vivo hEPO protein production | 31.9 ng/mL | 15.1 ng/mL | 0.052 | 134 nm | – | –
4 | CCCCCCCCCCC(O)CN(CCCCOC(=O)CN(C)CC(=O)OCCCCN(CC(O)CCCCCCCCCC)CC(O)CCCCCCCCCC)CC(O)CCCCCCCCCC (centres unmarked) [XIV] | – | – | – | – | 67% | high levels of in vivo hEPO protein production | 33.9 ng/mL | 18.3 ng/mL | 0.098 | 101 nm | – | –
5 | CCCCCCCCCCCOC(=O)CCCC(O)CN(CCCCN(C)C(=O)CN(C)CC(=O)N(C)CCCCN(CC(O)CCCCCC(=O)OC(CCCCCCCC)CCCCCCCC)CC(O)CCCC(=O)OCCCCCCCCCCC)CC(O)CCCCCC(=O)OC(CCCCCCCC)CCCCCCCC (centres unmarked) [Compound LXXVII, di(heptadecan-9-yl) 7,27-dihydroxy-9,25-bis(2-hydroxy-6-oxo-6-(undecyloxy)hexyl)-14,17,20-trimethyl-15,19-dioxo-9,14,17,20,25-pentaazatritriacontanedioate] | 99% | – | 0.137 | 114 nm | – | – | – | – | – | – | 45.6 ng/mL | –
6 | CCCCCCCCCCC(=O)OCCCCC(O)CN(CCCCNC(=O)CC(C)(O)CC(=O)NCCCCN(CC(O)CCCCCOC(=O)C(CCCCCCCC)CCCCCCCC)CC(O)CCCCOC(=O)CCCCCCCCCC)CC(O)CCCCCOC(=O)C(CCCCCCCC)CCCCCCCC (centres unmarked) [Compound XCIV] | 96% | – | 0.085 | 138 nm | – | – | – | – | – | – | 36.4 ng/mL | –
7 | CCCCCCCCCCC(O)CN(CCCOC(=O)N[C@@H](Cc1ccccc1)C(=O)OCCCN(CC(O)CCCCCCCCCC)CC(O)CCCCCCCCCC)CC(O)CCCCCCCCCC (stereo partly drawn) [Compound XCVII, 3-(bis(2-hydroxydodecyl)amino)propyl ((3-(bis(2-hydroxydodecyl)amino)propoxy)carbonyl)-L-phenylalaninate] | 83% | – | 0.101 | 125 nm | – | – | – | – | – | – | – | 16.0 ng/mL
